Measurements: patent US9539349B2, “Formulation, apparatus and method for stabilizing radiopharmaceuticals” (Siemens Medical Solutions USA, Inc., priority 2010, dated 2017)
Like-named read-outs stand apart in the source and are kept apart here.

Experiments:
[1] = test system: proximal renal tubes in kidneys; details: dog, in vivo
[2] = test system: proximal renal tubes in kidneys; details: rat, in vivo
[3] = Excipient screen: protective factor (PF) for [F-18]FLT in argon sparged vials; details: in the absence of oxygen, in the presence of argon
[4] = Radiochemical purity / percent stability of aged radiopharmaceutical solutions by radio-analytical HPLC; details: for % stability 2.25 hr: [F-18]BMS 747158-02 12 mCi/mL, 10 vol. % EtOH:water; for RCP % 1.5 hrs post dispensing / RCP % 4 hrs post dispensing: FLT; for % stability 4.0 hr: [F-18]FLT 126.3 mCi/mL (text: 103 mCi/mL); for % stability 5.5 hr: [F-18]FLT 127 mCi/mL; for % stability 3 hr: [F-18]HX4 16.2 mCi/mL
[5] = Hydrogen peroxide concentration by peroxide test strips; assay type: physicochemical

In the case of O=C(O)/C=C\C(=O)O [Maleic acid], the “predicted human dose equivalent for renal effect” value [1] is reported as “approximately 15 mg/kg”, the “predicted human dose equivalent for renal effect, total dose” value [1] is reported as 1000 mg and the “predicted human dose equivalent for renal effect” value [2] is reported as “approximately 12.3 mg/kg”. For the same molecule, the “predicted human dose equivalent for renal effect, total dose” value [2] was 855 mg and the “stabilization of [F-18]FLT against radiolysis” value [3] was “highly stabilizing”.

In the case of CC(C)(C)n1ncc(OCc2ccc(COCC[18F])cc2)c(Cl)c1=O [[F-18]BMS 747158-02], the “% stability 2.25 hr” value ([4]; Air/O2 (before sparge)) is reported as 91% and the “% stability 2.25 hr” value ([4]; Argon (reformulated after sparge)) is reported as 12%.

Cc1cn([C@H]2C[C@H]([18F])[C@@H](CO)O2)c(=O)[nH]c1=O [[F-18]FLT] gave a hydrogen peroxide concentration ([5]; FLT sample 126.3 mCi/mL, containing maleic acid (argon)) of 0 ppm, a hydrogen peroxide concentration ([5]; FLT sample 126.3 mCi/mL, headspace of argon) of 0 ppm and a hydrogen peroxide concentration ([5]; FLT sample 127 mCi/mL, headspace of oxygen) of 5 ppm. The hydrogen peroxide concentration ([5]; FLT sample 127 mCi/mL, headspace of oxygen and maleic acid) was 0.5-2.0 ppm, the stabilization by formulation ([4]; 8 vol. % EtOH:92 vol. % sodium phosphate (21 mM, pH=4.0-7.0) containing 0.01% (g/ml) maleic acid) was “very efficient at stabilizing” and the “RCP % 1.5 hrs post dispensing” value ([4]; Air-purged vial) was 100%. For the same molecule, the “RCP % 4 hrs post dispensing” value ([4]; Air-purged vial) was 100%, the “RCP % 1.5 hrs post dispensing” value ([4]; Argon purged vial) was 62.5% and the “RCP % 4 hrs post dispensing” value ([4]; Argon purged vial) was 38.5%. For the same molecule, the “oxygen in finished product vial headspace at which FLT stability is improved” value ([4]; Greer and Adelphi vials) was greater than 10 vol. %, the radiochemical purity ([4]; [F-18]FLT 63.2 mCi/mL at EOS, dose vial sparged with Ar, after 1.5 hrs) was 62.5% and the radiochemical purity ([4]; [F-18]FLT 63.2 mCi/mL at EOS, dose vial sparged with Ar, after 4.0 hrs) was 38.57%. The radiochemical integrity ([4]; [F-18]FLT 63.2 mCi/mL at EOS, headspace of oxygen (syringe and sample vial), up to 4 hrs) was “remained radiochemically intact”, the “% stability 2 hr” value ([4]; [F-18]FLT 82 mCi/mL, 8 vol. % EtOH:phosphate, 0.01% (g/ml) maleic acid + Air headspace, rt) was 100% and the “% stability 3.25 hr” value ([4]; [F-18]FLT 118.7 mCi/mL, 8 vol. % EtOH:phosphate, maleic acid + Ar headspace) was 37.9%. For the same molecule, the “% stability 4.0 hr” value ([4]; 8 vol. % EtOH:phosphate, Ar, no maleic acid) was 1.5%, the “% stability 4.0 hr” value ([4]; 8 vol. % EtOH:phosphate, maleic acid (0.1 mg/mL) and Ar) was 88.7% and the “% stability 5.5 hr” value ([4]; 8 vol. % EtOH:phosphate, syringe sample, O2 (no headspace), no maleic acid) was 19.68%. The “% stability 5.5 hr” value ([4]; 8 vol. % EtOH:phosphate, syringe sample, maleic acid + O2 (no headspace)) was 97.13%, the “% stability 5.5 hr” value ([4]; 8 vol. % EtOH:phosphate, vial, Air headspace, no maleic acid) was no less than 98% and the “% stability 5.5 hr” value ([4]; 8 vol. % EtOH:phosphate, vial, maleic acid + Air headspace (rt)) was no less than 98%. For the same molecule, the radiochemical integrity ([4]; [F-18]FLT 129.5 mCi/mL at EOS, control dose vial with headspace of oxygen) was “remained radiochemically intact”, the radiochemical integrity ([4]; [F-18]FLT 129.5 mCi/mL at EOS, syringe with headspace of oxygen (20.95 vol. %)) was “remained radiochemically intact” and the radiochemical purity ([4]; [F-18]FLT 129.5 mCi/mL at EOS, syringe without headspace of oxygen, after 2.6 hrs) was 66.7%. For the same molecule, the radiochemical purity ([4]; [F-18]FLT 129.5 mCi/mL at EOS, syringe without headspace of oxygen, after 3.8 hrs) was 32.7%, the “% stability 3.5 hr” value ([4]; [F-18]FLT 197.1 mCi/mL, 8 vol. % EtOH:phosphate, dose vial, air/O2 only) was 82.6% and the “stability (FIG. 2)” value ([4]; in the presence of argon without maleic acid) was “decomposes”. For the same molecule, the “stability (FIG. 1)” value ([4]; in the presence of argon without oxygen) was “decomposes”, the “stability (FIG. 2)” value ([4]; in the presence of maleic acid in argon) was “stabilized” and the “stability (FIG. 1)” value ([4]; in the presence of oxygen) was “stabilized”. The “stability (FIG. 4)” value ([4]; in the presence of oxygen and maleic acid) was “further stabilized”, the “stability (FIG. 4)” value ([4]; in the presence of oxygen, once the oxygen is consumed) was “decomposes” and the period of stability ([4]; oxygen and maleic acid formulation, in some instances) was “about 18 hours”. For the same molecule, the “strength up to which samples did not contain radiolyzed products” value ([4]; samples spiked with O2) was “up to 197 mCi/mL”.

In the case of O=[N+]([O-])c1nccn1Cc1cn(C(CO)C[18F])nn1 (centres unmarked) [[F-18]HX4], the “% stability 3 hr” value ([4]; 8 vol. % EtOH:phosphate (text: 10 vol. % EtOH:water), maleic acid + Argon) is reported as 8.66%, the “% stability 3 hr” value ([4]; 8 vol. % EtOH:phosphate (text: 10 vol. % EtOH:water), maleic acid + O2) is reported as 98.9% and the “% stability 3 hr” value ([4]; 8 vol. % EtOH:phosphate, Air (O2)) is reported as 94.06%. The “% stability 3 hr” value ([4]; 8 vol. % EtOH:phosphate, Argon) was 85.6%, the radiochemical integrity ([4]; [F-18]HX4 in 10 vol. % EtOH:water, headspace of oxygen, up to 4 hrs) was “remained radiochemically intact” and the radiochemical purity ([4]; [F-18]HX4 in 10 vol. % EtOH:water, sparged with Ar, after 1 hrs) was 0.28%. For the same molecule, the radiochemical purity ([4]; [F-18]HX4 in 10 vol. % EtOH:water, sparged with Ar, after 4.0 hrs) was 0%.

In the case of CC(C)[C@@H](C(=O)N[C@@H](Cc1ccc(OCC[18F])cc1)C(=O)O)n1cc(COc2ccc3nc(S(N)(=O)=O)sc3c2)nn1 [[F-18]VM4-037], the radiolytic stability ([4]; oxygen introduced into the sample vials) is reported as “not undergo radiolysis” and the radiolytic stability ([4]; stored under an atmosphere of He) is reported as “susceptible to radiolytical decomposition”.
